Reference: PubChem BioAssay AID330 (DTP/NCI, 2004)
Values joined by “and” are separate entries in the source; they are usually repeats but may differ in a detail not shown here. Equal entries are not always repeated. Toxic doses and inconclusive results are not listed. The calls were made as follows: active = survival T/C of 150% or more; inactive = T/C below 125% in these data.

Tested on: P388 leukemia ip, CD2F1 mice, survival T/C
Assay: NCI In Vivo Anticancer Drug Screen. Data for tumor model P388 Leukemia (intraperitoneal) in CD2F1 (CDF1) mice
Details: endpoint: median survival time, higher = longer survival
Method in brief: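 Mice carrying the transplanted tumor received test compound or vehicle. Survival was recorded in each group, and the value is the treated-group measurement divided by that of the vehicle-treated control group.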

[1] = dose: 12.5 mg/kg/injection, schedule: Q01DX009 (ip), vehicle: saline with Tween-80
[2] = dose: 25.0 mg/kg/injection, schedule: Q01DX009 (ip), vehicle: saline with Tween-80
[3] = dose: 50.0 mg/kg/injection, schedule: Q01DX009 (ip), vehicle: saline with Tween-80
[4] = dose: 100.0 mg/kg/injection, schedule: Q01DX009 (ip), vehicle: saline with Tween-80
[5] = dose: 60.0 mg/kg/injection, schedule: Q01DX005 (ip), vehicle: Klucel (hydroxypropylcellulose) (HPC)
[6] = dose: 120.0 mg/kg/injection, schedule: Q01DX005 (ip), vehicle: Klucel (hydroxypropylcellulose) (HPC)
[7] = dose: 240.0 mg/kg/injection, schedule: Q01DX005 (ip), vehicle: Klucel (hydroxypropylcellulose) (HPC)
[8] = dose: 50.0 mg/kg/injection, schedule: Q01DX005 (ip), vehicle: Klucel (hydroxypropylcellulose) (HPC)
[9] = dose: 100.0 mg/kg/injection, schedule: Q01DX005 (ip), vehicle: Klucel (hydroxypropylcellulose) (HPC)
[10] = dose: 200.0 mg/kg/injection, schedule: Q01DX005 (ip), vehicle: Klucel (hydroxypropylcellulose) (HPC)
[11] = dose: 25.0 mg/kg/injection, schedule: Q01DX005 (ip), vehicle: Klucel (hydroxypropylcellulose) (HPC)
[12] = dose: 60.0 mg/kg/injection, schedule: Q01DX005 (ip), vehicle: saline with Tween-80
[13] = dose: 120.0 mg/kg/injection, schedule: Q01DX005 (ip), vehicle: saline with Tween-80
[14] = dose: 240.0 mg/kg/injection, schedule: Q01DX005 (ip), vehicle: saline with Tween-80
[15] = dose: 100.0 mg/kg/injection, schedule: Q04DX003 (ip), vehicle: saline with Tween-80
[16] = dose: 200.0 mg/kg/injection, schedule: Q04DX003 (ip), vehicle: saline with Tween-80
[17] = dose: 400.0 mg/kg/injection, schedule: Q04DX003 (ip), vehicle: saline with Tween-80
[18] = dose: 100.0 mg/kg/injection, schedule: Q04DX003 (ip), vehicle: Klucel (hydroxypropylcellulose) (HPC)

Measured: T/C

O=C(O)c1ccccc1Nc1cccc(C(F)(F)F)c1
inactive: [1] 103 % of control | [2] 98 % of control | [3] 97 % of control | [4] 107 % of control

Cc1nn(C)c2ccc3ccccc3c(=O)c12
inactive: [5] 101 % of control | [6] 102 % of control | [7] 105 % of control

Cc1ccc(S(=O)(=O)OCC(C)(C)COS(=O)(=O)c2ccc(C)cc2)cc1
inactive: dose: 3.13 mg/kg/injection, schedule: Q01DX009 (ip), vehicle: saline with Tween-80 103 % of control | dose: 6.25 mg/kg/injection, schedule: Q01DX009 (ip), vehicle: saline with Tween-80 103 % of control | [1] 105 % of control | [2] 106 % of control

O=c1[nH]cc(N=Cc2ccccc2F)c(=O)[nH]1
inactive: dose: 50.0 mg/kg/injection, schedule: Q01DX009 (ip), vehicle: suspension in saline 92 % of control | dose: 100.0 mg/kg/injection, schedule: Q01DX009 (ip), vehicle: suspension in saline 100 % of control | dose: 200.0 mg/kg/injection, schedule: Q01DX009 (ip), vehicle: suspension in saline 96 % of control

CCC1(CC)C(=O)ON(C(C)(C)N2OC(=O)C(CC)(CC)C2=O)C1=O
inactive: [8] 102 % of control | [9] 104 % of control | [10] 96 % of control

O=C1NC(=O)[C@@]2(CCOc3ccc(F)cc32)N1
inactive: [8] 95 % of control | [9] 100 % of control | [10] 100 % of control

CC(=O)Oc1n[nH]c(=O)n1-c1ccccc1
inactive: dose: 50.0 mg/kg/injection, schedule: Q01DX005 (ip), vehicle: Klucel + Tween-80 107 % of control | dose: 100.0 mg/kg/injection, schedule: Q01DX005 (ip), vehicle: Klucel + Tween-80 107 % of control | dose: 200.0 mg/kg/injection, schedule: Q01DX005 (ip), vehicle: Klucel + Tween-80 98 % of control

CC(O)C(N=C1N=CNC2=NC=NC12)C(=O)O (stereo not given)
inactive: dose: 50.0 mg/kg/injection, schedule: Q01DX005 (ip), vehicle: saline with Tween-80 100 % of control | dose: 100.0 mg/kg/injection, schedule: Q01DX005 (ip), vehicle: saline with Tween-80 96 % of control | dose: 200.0 mg/kg/injection, schedule: Q01DX005 (ip), vehicle: saline with Tween-80 95 % of control

c1ccc2c3c(ccc2c1)OCCOCCOc1ccc2ccccc2c1-c1c(ccc2ccccc12)OCCOCCOc1ccc2ccccc2c1-3
inactive: dose: 100.0 mg/kg/injection, schedule: Q04DX002 (ip), vehicle: saline with Tween-80 96 % of control | dose: 200.0 mg/kg/injection, schedule: Q04DX002 (ip), vehicle: saline with Tween-80 89 % of control | dose: 400.0 mg/kg/injection, schedule: Q04DX002 (ip), vehicle: saline with Tween-80 91 % of control

CC(=O)N1CCc2cc(N)ccc21
inactive: [3] 95 % of control | [4] 86 % of control | dose: 200.0 mg/kg/injection, schedule: Q01DX009 (ip), vehicle: saline with Tween-80 90 % of control

N#Cc1ccc[n+](CC(=O)c2ccc3ccccc3c2)c1
inactive: dose: 6.25 mg/kg/injection, schedule: Q01DX005 (ip), vehicle: Klucel (hydroxypropylcellulose) (HPC) 103 % of control | dose: 12.5 mg/kg/injection, schedule: Q01DX005 (ip), vehicle: Klucel (hydroxypropylcellulose) (HPC) 103 % of control | [11] 100 % of control

Cc1ccccc1C(=O)c1cc(Br)ccc1[N+](=O)[O-]
inactive: dose: 50.0 mg/kg/injection, schedule: Q01DX009 (ip), vehicle: saline 91 % of control | dose: 100.0 mg/kg/injection, schedule: Q01DX009 (ip), vehicle: saline 100 % of control | dose: 200.0 mg/kg/injection, schedule: Q01DX009 (ip), vehicle: saline 100 % of control

CCOC(=O)C1C(C)=CC2=Nc3ccccc3NC(=O)C2C1c1ccccc1 (stereo not given)
inactive: [11] 104 % of control | [8] 106 % of control

O=C1COc2ccccc2OCCOCCOc2ccccc2OC1
inactive: [12] 97 % of control | [13] 98 % of control | [14] 96 % of control

CC1=NN(C(=O)c2cccnc2)C(=O)C1N=Nc1ccc(S(=O)(=O)N=C(N)N)cc1 (stereo not given)
inactive: [15] 91 % of control | [16] 92 % of control | [17] 88 % of control

Cc1ccccc1C1OC2=C(Nc3ccc([N+](=O)[O-])cc3N2)C1=O (stereo not given)
inactive: [5] 88 % of control | [6] 90 % of control | [7] 101 % of control

CC1=CC(=O)c2c(O)cccc2C1=O
inactive: dose: 2.0 mg/kg/injection, schedule: Q01DX009 (ip), vehicle: Klucel (hydroxypropylcellulose) (HPC) 108 % of control | dose: 2.0 mg/kg/injection, schedule: Q01DX009 (ip), vehicle: saline with Tween-80 110 % of control | dose: 4.0 mg/kg/injection, schedule: Q01DX009 (ip), vehicle: Klucel (hydroxypropylcellulose) (HPC) 113 % of control and 116 % of control | dose: 4.0 mg/kg/injection, schedule: Q01DX009 (ip), vehicle: saline with Tween-80 114 % of control | dose: 8.0 mg/kg/injection, schedule: Q01DX009 (ip), vehicle: Klucel (hydroxypropylcellulose) (HPC) 122 % of control

CN(C)C(=O)C1CCC1
inactive: [15] 95 % of control | [16] 100 % of control | [17] 100 % of control

COc1ccccc1-c1cn(O)c2nc(=N)nc(N)c-2n1
inactive: dose: 50.0 mg/kg/injection, schedule: Q04DX003 (ip), vehicle: saline with Tween-80 91 % of control | [15] 89 % of control | [16] 99 % of control | [17] 107 % of control

C[CH](C)[Sn](=[O])[CH](C)C
inactive: dose: 0.78 mg/kg/injection, schedule: Q01DX009 (ip), vehicle: saline 113 % of control | dose: 1.56 mg/kg/injection, schedule: Q01DX009 (ip), vehicle: saline 106 % of control | dose: 3.12 mg/kg/injection, schedule: Q01DX009 (ip), vehicle: saline 107 % of control

CC(=O)Nc1ccc(S(=O)(=O)c2ccc(NC(C)=O)s2)s1
inactive: [8] 98 % of control | [9] 95 % of control | [10] 89 % of control

O=C(NC(Cc1ccc(Cl)cc1)C(=O)O)c1ccccc1 (stereo not given)
inactive: dose: 25.0 mg/kg/injection, schedule: Q01DX009 (ip), vehicle: other 98 % of control | dose: 50.0 mg/kg/injection, schedule: Q01DX009 (ip), vehicle: other 97 % of control | dose: 100.0 mg/kg/injection, schedule: Q01DX009 (ip), vehicle: other 106 % of control

NC(=O)c1cc([N+](=O)[O-])cc([N+](=O)[O-])c1Cl
inactive: dose: 6.25 mg/kg/injection, schedule: Q01DX009 (ip), vehicle: Klucel (hydroxypropylcellulose) (HPC) 102 % of control

O=c1[nH]c(=O)c2c([nH]1)oc1ccccc12
inactive: [12] 102 % of control | [13] 95 % of control | [14] 98 % of control

CS(=N)(=O)CCC(N)C(=O)O (stereo not given) (tested in a mixture with another compound)
inactive: dose: 25.0 mg/kg/injection, schedule: Q01DX001 (ip), vehicle: saline 100 % of control | dose: 50.0 mg/kg/injection, schedule: Q01DX001 (ip), vehicle: saline 105 % of control | dose: 100.0 mg/kg/injection, schedule: Q01DX001 (ip), vehicle: saline 105 % of control

COC1C=C(Cl)C(=O)C(C)O1 (stereo not given)
inactive: dose: 25.0 mg/kg/injection, schedule: Q04DX003 (ip), vehicle: Klucel (hydroxypropylcellulose) (HPC) 100 % of control | dose: 50.0 mg/kg/injection, schedule: Q04DX003 (ip), vehicle: Klucel (hydroxypropylcellulose) (HPC) 106 % of control | [18] 100 % of control

O=C(O)/C=C/c1c[nH]c(=O)[nH]c1=O
inactive: [12] 107 % of control | [13] 100 % of control | [14] 89 % of control

Nc1nnc2cc(Cl)ccc2n1
inactive: [11] 98 % of control | [8] 96 % of control | [9] 98 % of control | [10] 98 % of control

C=CC(C)(C)C1Oc2cc(OC)ccc2C(=O)C1c1ccc(OC)c(OC)c1O (stereo not given)
inactive: [18] 99 % of control | dose: 200.0 mg/kg/injection, schedule: Q04DX003 (ip), vehicle: Klucel (hydroxypropylcellulose) (HPC) 98 % of control | dose: 400.0 mg/kg/injection, schedule: Q04DX003 (ip), vehicle: Klucel (hydroxypropylcellulose) (HPC) 96 % of control
